Test results taken from patent publication US20170305861A1, “HETEROARYL COMPOUNDS COMPRISING NITROGEN AND USE THEREOF” (ImmunoMet Therapeutics, Inc, priority 2016, published 2017).
Read-outs that look alike come from different tables or passages of the source.

What was measured:
[1] = test system: A549 cell lines (lung cancer cell lines); assay: Oxygen Consumption Rate (OCR) of cells, corrected for cell viability (Cyquant); format: cell-based; conditions: Homo sapiens, read-out: OCR IC50
Description: The compounds synthesized by the methods disclosed in the Examples of the present invention have been measured on oxygen consumption rate and extracellular oxidation by the methods disclosed in the Test Examples below.
3×10^3 cells from A549 cell lines (purchased from ATCC-American Type Culture Collection), which are lung cancer cell lines, were placed on XF96 cell culture plates using RPMI1640 medium, and cultured at 37° C. in a 5% CO2 condition for 16 hours or more for attachment.
After 16 hours, the cells were treated with the drug at six different concentrations between 0 μM and 20 μM. After 24 hours, the existing medium was removed, and XF assay medium (15 mM D-Glucose, 15 mM sodium pyruvate, 4 mM L-Glutamine, pH 7.4) was added. The cells were retreated with the drug, and additionally cultured in Prep station at 37° C. in a non-CO2 condition for 1 hour. During the one-hour culture in the Prep station, a sensor cartridge was placed and calibrated for 20 minutes, and a plate with cells was placed to analyze the OCR. After the analysis was completed, XF96 plate was measured for cell viability using Cyquant assay, which measures the amount of intracellular DNA, in the following method. XF assay medium and the drug were removed, and the cells were placed in a cryogenic refrigerator (−80° C.) for at least 4 hours to be frozen. After the plate was made to be at room temperature, a solution where a lysis buffer and fluorescent GR dye were mixed was placed by 200 μL per well. After 20-minute reaction at room temperature, […] was measured between […] to calculate cell viability. A measured value of a well untreated with the drug was converted to 100% by reflecting cell viability to the OCR value. Concentration of a drug which inhibits the OCR value reflecting cell viability by 50% was calculated.

SK-MEL-28 cells = assay: Inhibitory effect of cancer cell proliferation, MTT; format: cell-based; conditions: Homo sapiens
Description: The compounds prepared in the above Examples were evaluated for the inhibitory effect of cancer cell proliferation according to the method described in the following Test Example.
SK-MEL-28 cells derived from human melanoma were used, and the concentration (cell growth inhibitory concentration, IC50) at which cell growth was inhibited to 50% was measured using MTT reagent (3-(4,5-dimethylthiazole-2-yl)-2,5-[…] bromide) to confirm the inhibitory effect of cancer cell proliferation of the drugs synthesized in Examples 1 to 84.
First, SK-MEL-28 cells were cultured in 96-well plates at a cell number of about 1,250 in RPMI-1640 medium containing 11.1 mM glucose and 10% calf blood serum or 0.75 mM glucose and 10% calf blood serum, and were cultured for 16 hours. […] After treatment of the compound, MTT was added to the culture medium to confirm living cells and further cultured for 2 hours. The resulting formazane crystal was dissolved using dimethyl sulfoxide, and the absorbance of the solution was measured at 555 nm. After culturing for 72 hours, the number of viable cells in the well plate treated with the compounds synthesized in the Examples relative to the number of cells cultured in the well plate without treatment of the compounds was expressed as cell viability (%) according to each treatment concentration. By using this, a cell viability curve graph was prepared, and the inhibitory effect of cancer cell proliferation was confirmed by calculating the concentration of the compound whose growth was inhibited to 50% (IC50).

[2] = A549 cells, 24 h drug treatment, OCR value reflecting cell viability
[3] = SK-MEL-28, 72 h, read-out: SK-MEL-28 0.75 mM glucose Cell viability (IC50 μM)
[4] = SK-MEL-28, 72 h, read-out: SK-MEL-28 11.1 mM glucose Cell viability (IC50 μM)
[5] = SK-MEL-28, 0.75 mM glucose, 72 hours, MTT, read-out: SK-MEL-28 0.75 mM glucose Cell viability (IC50 μM)
[6] = SK-MEL-28, 11.1 mM glucose, 72 hours, MTT, read-out: SK-MEL-28 11.1 mM glucose Cell viability (IC50 μM)

Row | IC50 [1, 2] [µM] | IC50 (SK-MEL-28 cells; [5]) [µM] | IC50 (SK-MEL-28 cells; [6]) [µM] | SMILES | IC50 ([1]; A549, 24 h) [µM] | IC50 (SK-MEL-28 cells; [3]) [µM] | IC50 (SK-MEL-28 cells; [4]) [µM]
1 | 0.4 | 20.7 | 16.8 | Nc1cc[n+](CCc2ccccc2)c(Br)c1 [Example 7, 4-Amino-2-bromo-1-phenethylpyridinium chloride] |  |  | 
2 | 1.2 | 4.7 | 75.1 | Nc1cc[n+](CCc2ccccc2)c(N)c1 [Example 8, 2,4-Diamino-1-phenethylpyridinium bromide] |  |  | 
3 | 0.7 | 11.9 | 38.5 | Nc1cc[n+](CCc2ccccc2Cl)cc1 [Example 11, 4-Amino-1-(2-chlorophenethyl)pyridinium chloride] |  |  | 
4 | 16.5 | 129 | 320 | c1ccc(CC[n+]2ccsc2)cc1 [Example 13, 3-Phenethylthiazol-3-ium iodide] |  |  | 
5 |  | 154 | 277 | Nc1scc[n+]1CCc1ccccc1 [Example 14, 2-Amino-3-phenethylthiazol-3-ium iodide] |  |  | 
6 | 1.5 | 8 | 28.2 | Nc1cc[n+](CCc2ccccc2)c2ccccc12 [Example 16, 4-Amino-1-phenethylquinolinium iodide] |  |  | 
7 | 4.2 | 6.9 | 75.4 | CN(C)c1cc[n+](CCc2ccccc2)cc1 [Example 17, 4-(Dimethylamino)-1-phenethylpyridinium chloride] |  |  | 
8 | 0.6 | 10.7 | 16.9 | Nc1cc[n+](CCc2ccccc2)c(F)c1 [Example 18, 4-amino-2-fluoro-1-phenethylpyridinium chloride] |  |  | 
9 | 1.8 | 14.7 | 143 | Nc1cc[n+](Cc2ccccc2)cc1 [Example 20, 4-Amino-1-benzylpyridinium chloride] |  |  | 
10 | 7.9 | 18.5 | 193 | c1ccc(CC[n+]2cccc3c2CCCC3)cc1 [Example 22, 1-Phenethyl-5,6,7,8-tetrahydroquinolinium chloride] |  |  | 
11 | 0.9 | 5.4 | 51.1 | Nc1cc[n+](CCCc2ccccc2)cc1 [Example 23, 4-Amino-1-(3-phenylpropyl)pyridinium chloride] |  |  | 
12 | 0.3 | 8.1 | 38.8 | Nc1cc[n+](CCc2ccccc2)c(Cl)c1 [Example 32, 4-Amino-2-chloro-1-phenethylpyridinium chloride] |  |  | 
13 | 1.5 | 7.7 | 102 | CNc1cc[n+](CCc2ccccc2)cc1 [Example 33, 4-(Methylamino)-1-phenethylpyridinium chloride] |  |  | 
14 | 1.1 | 7.9 | 101 | CNc1cc[n+](Cc2ccccc2)cc1 [Example 34, 1-Benzyl-4-(methylamino)pyridinium chloride] |  |  | 
15 | 1.1 | 1.5 | 10.8 | CNc1cc[n+](Cc2ccc(Cl)c(Cl)c2)cc1 [Example 37, 1-(3,4-Dichlorobenzyl)-4-(methylamino)pyridinium chloride] |  |  | 
16 |  | 131 | 545 | c1ccc(C[n+]2ccc(NC3COC3)cc2)cc1 [Example 67, 1-Benzyl-4-(oxetan-3-ylamino)pyridinium chloride] |  |  | 
17 |  | 14.6 | 132 | CC(C)(C)Nc1cc[n+](Cc2ccccc2)cc1 [Example 69, 1-benzyl-4-(tert-butylamino)pyridinium chloride] |  |  | 

More lines, now with the values behind:

Row | SMILES | IC50 [1, 2] [µM] | IC50 (SK-MEL-28 cells; [5]) [µM] | IC50 (SK-MEL-28 cells; [6]) [µM] | IC50 ([1]; A549, 24 h) [µM] | IC50 (SK-MEL-28 cells; [3]) [µM] | IC50 (SK-MEL-28 cells; [4]) [µM]
18 | COc1ccc2cc3[n+](cc2c1OC)CCc1cc2c(cc1-3)OCO2 [Berberine, reference compound] | 4.6 |  |  |  |  | 
19 | Nc1cc[n+](CCc2ccccc2)cc1 [Example 1, 4-Amino-1-phenethylpyridinium chloride] |  |  |  | 1.1 | 17.9 | 163
20 | Nc1cc[n+](CCc2ccccc2Cl)c(N)c1 [Example 12, 2,4-Diamino-1-(2-chlorophenethyl)pyridinium bromide] | 0.8 | 12.8 | 55.5 |  |  | 
21 | Nc1cc[n+](CCc2ccccc2)c(C2CC2)c1 [Example 15, 4-amino-2-cyclopropyl-1-phenethylpyridinium iodide] | 2.3 | 6.8 | 47 |  |  | 
22 | Nc1cc[n+](CCc2ccc(Cl)c(Cl)c2)cc1 [Example 19, 4-Amino-1-(3,4-dichlorophenethyl)pyridinium chloride] | 0.5 | 5.9 | 8.8 |  |  | 
23 | Nc1cc[n+](Cc2ccccc2)c(F)c1 [Example 21, 4-Amino-1-benzyl-2-fluoropyridinium chloride] | 0.9 | 12.5 | 27.4 |  |  | 
24 | Nc1cc[n+](CCCc2ccccc2)c(F)c1 [Example 24, 4-Amino-2-fluoro-1-(3-phenylpropyl)pyridinium chloride] | 0.8 | 4.4 | 16.8 |  |  | 
25 | Nc1cc[n+](CC(=O)c2ccc(OC(F)(F)F)cc2)cc1 [Example 25, 4-Amino-1-(2-oxo-2-(4-(trifluoromethoxy)phenyl)ethyl)pyridinium bromide] | 1.6 | 15.5 | 40.6 |  |  | 
26 | Nc1cc[n+](CC(=O)c2ccccc2)cc1 [Example 26, 4-Amino-1-(2-oxo-2-phenylethyl)pyridinium bromide] | 2.4 | 102 | 194 |  |  | 
27 | Nc1cc[n+](CCC2CCCCC2)cc1 [Example 27, 4-Amino-1-(2-cyclohexylethyl)pyridinium bromide] |  |  |  | 0.4 | 1.7 | 19.5
28 | Nc1cc[n+](CCC2CCCCC2)c(F)c1 [Example 28, 4-Amino-1-(2-cyclohexylethyl)-2-fluoropyridinium bromide] | 0.4 | 0.7 | 3.8 |  |  | 
29 | Nc1cc[n+](Cc2ccccc2)c(N)c1 [Example 29, 2,4-Diamino-1-benzylpyridinium chloride] | 5.3 | 38.5 | 162 |  |  | 
30 | Nc1cc[n+](Cc2ccccc2)c(Cl)c1 [Example 30, 4-Amino-1-benzyl-2-chloropyridinium chloride] | 0.9 | 8.2 | 23 |  |  | 
31 | Nc1cc[n+](CC2CC2)cc1 [Example 31, 4-Amino-1-(cyclopropylmethyl)pyridinium chloride] | 4.3 | 56.2 | 418 |  |  | 
32 | Nc1cc[n+](Cc2ccc(Cl)c(Cl)c2)c(F)c1 [Example 35, 4-Amino-1-(3,4-dichlorobenzyl)-2-fluoropyridinium chloride] | 0.5 | 5 | 7.5 |  |  | 
33 | Nc1cc[n+](Cc2ccc(Cl)c(Cl)c2)cc1 [Example 36, 4-Amino-1-(3,4-dichlorobenzyl)pyridinium chloride] | 0.7 | 2.8 | 13.1 |  |  | 
34 | CN(C)c1cc[n+](Cc2ccc(Cl)c(Cl)c2)cc1 [Example 38, 1-(3,4-Dichlorobenzyl)-4-(dimethylamino)pyridinium chloride] | 1.1 | 1.5 | 11.7 |  |  | 
35 | FC1(F)CCN(c2cc[n+](Cc3ccccc3)cc2)CC1 [Example 65, 1-benzyl-4-(4,4-difluoropiperidin-1-yl)pyridinium chloride] |  | 28.6 | 215 |  |  | 
36 | Nc1cc[n+](CC2CC2)cn1 [Example 73, 4-Amino-1-(cyclopropylmethyl)pyrimidin-1-ium chloride] |  | 169 | 358 |  |  | 
37 | Nc1cc[n+](Cc2ccc[se]2)cn1 [Example 74, 4-Amino-1-(selenophen-2-ylmethyl)pyrimidin-1-ium chloride] |  |  |  |  | 74.4 | 243
